Experimental data published in patent US9101628B2, “Methods and composition of treating a flaviviridae family viral infection” (The Board of Trustees of the Leland Stanford Junior …, priority 2007, dated 2015).

Tested on: HCV RNA replication
Assay: RNA replication inhibition assay (luciferase reporter-linked HCV genome)
Details: Hepatitis C virus, percentage of untreated control population; for activity at 5 µM: read-out: Residual Luciferase activity, 5 micromolar; for activity at 10 µM: read-out: Residual Luciferase activity, 10 micromolar

| Structure (SMILES) | activity at 5 µM [%] | activity at 10 µM [%] |
| --- | --- | --- |
| Cc1cc2c(ncn2Cc2ccc(Cl)cc2)c(NC(=O)C(F)(F)F)c1C [Compound 70] | > 80 | > 80 |
| CC(C)(C)c1ccc(Cn2cnc3ccccc32)cc1 [Compound 141] | < 55 | < 20 |
| Cc1ccccc1Cn1cnc2c(NS(C)(=O)=O)c(C)c(C)cc21 [Compound 74] | > 80 | > 80 |
| COc1c(Cl)cnc2c1ccn2Cc1ccc(Cl)cc1 [Compound 101] | > 80 | < 80 |
| N#Cc1cnc2c(ccn2Cc2ccc(Cl)cc2)c1 [Compound 103] | > 80 | < 55 |
| Cc1cccc(Cn2cnc3c(NS(=O)(=O)C(F)(F)F)c(C)c(C)cc32)c1 [Compound 78] | < 55 | < 20 |
| COCC1CCN(Cc2nc3ccccc3n2Cc2ccc(Cl)cc2)C1 (stereo not shown) [Compound 6] | > 80 | < 80 |
| CCc1nc2ccccc2n1Cc1ccc(Cl)cc1 [Compound 112] | > 80 | < 80 |
| Cc1cc2c(ncn2Cc2ccccc2)c(N)c1C [Compound 146] | < 80 | < 80 |
| Cc1cc2c(nc(C)n2Cc2ccccc2)c(NS(C)(=O)=O)c1C [Compound 76] | > 80 | < 80 |
| Cc1cc2nc(/C=C/c3ccccc3)n(Cc3ccc(Cl)cc3)c2cc1C [Compound 145] | < 80 | < 20 |
| FC(F)(F)c1nc2ccccc2n1Cc1ccc(Cl)cc1 [Compound 123] | > 80 | < 80 |
| c1cncc(Cn2c(CN3CCCC3)nc3ccccc32)c1 [Compound 21] | > 80 | > 80 |
| Clc1ccc(Cn2c(CN3CCOCC3)nc3ccccc32)cc1 [Compound 127] | < 55 | < 55 |
| c1ccc2c(c1)nc(CN1CCCC1)n2Cc1ccncc1 [Compound 20] | > 80 | > 80 |
| Clc1ccc(Cn2c(CN3CCCC3)nc3cc(Cl)c(Cl)cc32)cc1 [Compound 157] | < 80 | < 55 |
| Clc1ccc(Cn2cnc3ncccc32)cc1 [Compound 86] | > 80 | < 80 |
| Fc1cc2ncn(Cc3ccc(Cl)cc3)c2cc1Cl [Compound 55] | < 80 | < 80 |
| Cc1cc2ncn(Cc3ccc(Cl)cc3)c2cc1Cl [Compound 65] | < 80 | < 55 |
| Cc1ccc2c(c1)ncn2Cc1ccc(Cl)cc1 [Compound 53] | < 55 | < 20 |
| CCOC(=O)Cc1nc2cc(S(C)(=O)=O)ccc2n1Cc1ccccc1 [Compound 151] | < 80 | < 55 |
| Clc1ccc(Cn2cnc3cccnc32)cc1 [Compound 85] | > 80 | < 80 |
| COc1cc2ncn(Cc3ccc(Cl)cc3)c2cc1OC [Compound 57] | < 80 | < 55 |
| CC(=O)N1CCCC(Cn2c(CN3CCCC3)nc3ccccc32)C1 (stereo not shown) [Compound 34] | > 80 | > 80 |
| Cc1ccc2c(ncn2Cc2ccc(Cl)cc2)c1C [Compound 59] | < 55 | < 55 |
| CC(C)c1nc2ccccc2n1Cc1ccc(Cl)cc1Cl [Compound 121] | > 80 | < 20 |
| COc1ccc(Cn2c(C)nc3c(NS(=O)(=O)c4ccc(F)cc4)c(C)c(C)cc32)cc1 [Compound 107] | < 80 | < 55 |
| CC(C)(C)C(=O)NCc1nc2ccccc2[nH]1 [Compound 115] | < 80 | > 80 |

| Structure (SMILES) | activity at 5 µM [%] | activity at 10 µM [%] |
| --- | --- | --- |
| Clc1ccc(CCn2cnc3ccccc32)cc1 [Compound 46] | > 80 | < 80 |
| COC(=O)C1CCCN1Cc1nc2ccccc2n1Cc1ccc(Cl)cc1 (stereo not shown) [Compound 8] | < 55 | < 55 |
| COC(=O)c1ccc(Cn2cnc3ccccc32)cc1 [Compound 139] | < 80 | < 55 |
| N#Cc1ccc(Cn2cnc3ccccc32)cc1 [Compound 137] | < 80 | < 80 |
| COc1ccc2c(c1)ncn2Cc1ccc(Cl)cc1 [Compound 56] | < 80 | < 55 |
| Cc1cc2nc(CN3CCCC3C(N)=O)n(Cc3ccc(Cl)cc3)c2cc1C (stereo not shown) [Compound 52] | < 80 | < 80 |
| Cc1cc2nc(CN3CCC[C@H]3CN3CCCC3)n(Cc3ccc(Cl)cc3)c2cc1C [Compound 50] | < 20 | < 20 |
| Cc1nc2ccccc2n1Cc1ccc(Br)cc1 [Compound 135] | < 20 | < 20 |
| CS(=O)(=O)N1CCC(Cn2c(CN3CCCC3)nc3ccccc32)CC1 [Compound 38] | < 80 | > 80 |
| COc1ccc(Cn2c(C)nc3c(N)c(C)c(C)cc32)cc1 [Compound 147] | < 80 | < 80 |
| CCCC(=O)NCc1nc2ccccc2n1Cc1ccccc1C [Compound 109] | > 80 | > 80 |
| Cc1cc2nc(C(C)O)n(Cc3ccc(Cl)cc3)c2cc1C (stereo not shown) [Compound 87] | < 55 | < 55 |
| Clc1cccc(Cn2c(CN3CCCC3)nc3ccccc32)c1 [Compound 18] | < 80 | < 80 |
| c1ccc2c(c1)nc(CN1CCCC1)n2CC1CCNCC1 [Compound 36] | < 80 | > 80 |
| COc1ccc(Cn2cnc3ccccc32)cc1 [Compound 144] | < 55 | < 55 |
| Oc1ccc2c(c1)ncn2Cc1ccc(Cl)cc1 [Compound 60] | < 20 | < 20 |
| CC(C)Cc1nc2ccccc2n1Cc1ccc(Cl)cc1 [Compound 118] | < 55 | < 55 |
| OC[C@@H]1CCCN1Cc1nc2ccccc2n1Cc1ccc(Cl)cc1 [Compound 25] | < 80 | < 55 |
| Cc1cc2c(ncn2C)c(NS(C)(=O)=O)c1C [Compound 79] | < 80 | > 80 |
| COC(=O)c1ccc(Cn2c(/C=C/c3ccccc3)nc3cc(C)c(C)cc32)cc1 [Compound 160] | < 80 | < 20 |
| Clc1ccc(Cn2cnc3cnccc32)cc1 [Compound 84] | < 80 | > 80 |
| Clc1ccc(Cn2c(-c3cncs3)nc3ccccc32)cc1 [Compound 43] | < 80 | < 55 |
| Cc1cc2nc(-c3ccc[nH]c3=O)n(Cc3ccc(Cl)cc3)c2cc1C [Compound 158] | < 80 | < 80 |
| Cc1cc2ncn(Cc3ccc(C#N)cc3)c2cc1C [Compound 138] | < 80 | > 80 |
| NC1=NC2CCCCC2N1C(=O)c1ccc(Cl)cc1 (stereo not shown) [Compound 132] | > 80 | > 80 |
| COC(=O)C1CCN(Cc2nc3ccccc3n2Cc2ccc(Cl)cc2)C1 (stereo not shown) [Compound 7] | > 80 | > 80 |
| OCc1nc2ccccc2n1Cc1ccc(Br)cc1 [Compound 136] |  | < 55 |
